{"source": "patent US8883740B2", "about": "“Peptides, compositions, and uses thereof” (Fundacao de Amparoa Pesquisa do Estado de Sao Paulo-Fapesp, priority 2008, dated 2014)", "key": {"[1]": {"tested_on": "endothelial cells (HUVEC)", "assay": "Cell viability, MTT colorimetric assay under reduced serum", "type": "cell-based", "settings": "5 μg/ml; 48 hours; RPMI 1640 with 1% FBS; vs control without peptide", "protocol": "Tests for cell viability (% viability) was realized utilizing reduced serum conditions and MTT (3-[4,5-Dimethylthiazol-2-yl]-2,5-Diphenyltetrazolium bromide) colorometric assay (Mosmann, 1983). The results are illustrated in FIGS. 1 to 3.\nFIG. 1 illustrates the effect of peptides (5 μg/ml) on cell viability (% viability) of endothelial cells (HUVEC) when incubated together for 48 hours in RPMI 1640 with 1% FBS. The control has cells incubated in RPMI 1640 with 1% FBS (with no peptide).\nFIG. 2 illustrates the effect of different concentrations of CNF011.05B on cell viability (% viability) of endothelial cells when incubated together for 120 hours in RPMI supplemented with 1% FBS.\nFIG. 3 illustrates the effect of different concentrations of CNF011.05D on cell viability (% viability) of endothelial cells when incubated together for 48 hours in RPMI supplemented with 1% FBS."}, "Neutrophils [2]": {"tested_on": "Neutrophils", "assay": "NO2 production by neutrophils, Griess reaction", "type": "cell-based, Wistar Rats", "settings": "1.5 μg/ml; 18 hours; absorbance at 550 nm", "protocol": "Neutrophils were cultured for 18 hours with CNF011.05D (1.5 μg/ml), and production of NO metabolite NO2 secreted into culture was assessed by use of the Griess reaction, and measurement of absorbance at 550 nm."}, "[3]": {"tested_on": "primary cultured endothelial cells", "assay": "Primary endothelial cell viability by flow cytometry (annexin V / propidium iodide), reduced serum", "type": "cell-based, Wistar Rats", "settings": "reduced serum medium (1%), 24 hours", "protocol": "(§1) Neutrophils or primary cultured endothelial cells from Wistar Rats were cultured in reduced serum medium (1%) in presence of CNF011.05D (3.0 μm/mL) and/or […] L-NAME, an inhibitor of NO synthase (and accordingly, an inhibitor of NO and resulting metabolite NO2 production). After 24 hours, cell viability was measured using flow cytometry analysis with FITC annexin V (1:500) and propidium iodide (10 μl of 50 mg/ml). The viability of both neutrophils (FIG. 4) and primary endothelial cells (FIG. 5) was increased with the peptide CNF011.05D alone, and this increase was diminished in presence of L-NAME."}, "collagen in the dermis": {"tested_on": "collagen in the dermis", "assay": "Production of collagen in the dermis after subcutaneous doses", "type": "in vivo", "description": "Levels of collagen were examined after different administrations of CNF011.05D: a single subcutaneous dose, two subcutaneous doses, and four subcutaneous doses."}, "punch wounds [4]": {"tested_on": "punch wounds", "assay": "Wound healing in rats, 6 mm punch wounds", "type": "in vivo, Wistar rats", "protocol": "Size and microscopic appearance of punch wounds was assessed in rats after a single dose of CNF011.05D. The rats were Wistar rats of 6-to-8 weeks of age, which were anesthesized and operated on the dorsal side of their backs. Following clipping of hair and scrub sterilization, wounds were made in each rat using a 6 mm biopsy punch. Following wounding and drying with sterile gauze, wounds were subjected to (1) bandaging (Standard Care) or (2) application of CNF011.05D (235 nM in saline) followed by bandaging. Wounds evaluated at Days 3, 7, 14, and 21 were assessed by veterinarians and documented as to whether the wound was healing normally for the day post-wounding, and the size of the wound in cm^2."}, "Human fibroblasts [5]": {"tested_on": "Human fibroblasts", "assay": "Production of fibronectin by fibroblasts, indirect immunofluorescence", "type": "cell-based", "settings": "0.35 μg; 4 days; vs saline; p<0.001", "protocol": "(§2) Human fibroblasts were acquired from ear lobe skin fragments (0.5×0.5 cm) from 5 normal African-Brazilian female donors, with age ranging from 10 to 40 years old, respectively called 2/05, 3/05, 4/05, 6/05 and 8/05. The donors were submitted to excisional biopsies in a surgical environment after free voluntary consent.\n(§3) Cells from the 6th subculture were placed in sterile culture plates and incubated with CNF011.05D at concentrations of 0.35 μg and 5 μg in culture medium for 4 days. The control group consisted of fibroblasts cultured under the same conditions, in which saline solution (a solvent of CNF011.05D) was added in the place of CNF011.05D.\n(§4) Indirect immunofluorescence was performed using (1) Anti-fibronectin (cellular) mAb OR anti-human tenascin mAb (Sigma-USA); and (2) Alexa Fluor 488 (Molecular Probes-USA).\nSamples tested are FBN-CN (cells treated with saline), FBN-0.35 (cells treated with CNF011.05D at 0.35 μg), and FBN-5 μg (cells treated with CNF011.05D at 5 μg)."}, "punch wounds [6]": {"tested_on": "punch wounds", "assay": "Wound healing in pigs, 8 mm punch wounds, granulation tissue filling", "type": "in vivo, Domestic Yorkshire Crossbred pigs", "protocol": "Levels of granulation tissue formation—a marker of the proliferative phase of Healing (Cascade)—were assessed in punch wounds after daily administrations of CNF011.05D or positive control (Bacaplermin gel 0.01%). The wounded animals were Domestic Yorkshire Crossbred pigs of 20 weeks of age, which were anesthesized and operated on the dorsal side of their backs. Following clipping of hair and scrub sterilization, 8 full thickness wounds were made in each pig using an 8 mm biopsy punch.\nFollowing wounding and drying with sterile gauze, the wounds were subjected to application with different treatments (see Table 5 and 6) followed by bandaging. Long-term postoperative monitoring included daily inspection of the surgical sites for 14 days. The daily inspection included cleansing of the wounds, reapplication of the same treatments—Standard Care or Positive Control or CNF011.05D (1×) or CNF011.05D (100×)—followed by rebandaging. […]"}, "Human fibroblasts [7]": {"tested_on": "Human fibroblasts", "assay": "Production of tenascin by fibroblasts, indirect immunofluorescence", "type": "cell-based", "settings": "0.35 μg; 4 days; vs saline; p<0.001", "protocol": "as §2, §3, §4\nSamples tested are CN (cells treated with saline), TN-0.35 (cells treated with CNF011.05D at 0.35 μg), and TN-5 μg (cells treated with CNF011.05D at 5 μg)."}, "Neutrophils [8]": {"tested_on": "Neutrophils", "assay": "Neutrophil viability by flow cytometry (annexin V / propidium iodide), reduced serum", "type": "cell-based, Wistar Rats", "settings": "reduced serum medium (1%), 24 hours", "protocol": "as §1"}, "[9]": {"settings": "CNF011.05D 3.0 μm/mL plus 1M L-NAME"}, "[10]": {"settings": "1x: 1 ml at 1.57 μg/ml in saline, daily, six wounds, Day 5"}, "[11]": {"settings": "1x: 1 ml at 1.57 μg/ml in saline, daily, six wounds, Day 7"}, "[12]": {"settings": "100x: 1 ml at 157 μg/ml in saline, daily, six wounds, Day 7"}}, "note": "Where “and” joins values, the source holds several entries; their conditions need not be identical. Equal values may be shown once."}
{"sequence": "APLWILSTDYDNYAIGYSC [CNF011.05B]", "values": [{"measurement": "cell viability (% viability)", "setting": "[1]", "result": "augment"}]}
{"sequence": "YAIGYSCKDYK [CNF011.05D]", "values": [{"measurement": "production of NO2", "setting": "Neutrophils [2]", "result": "increases"}, {"measurement": "increase of viability of primary endothelial cells in presence of L-NAME", "setting": "[3]; [9]", "result": "diminished"}, {"measurement": "viability of primary endothelial cells", "setting": "[3]; CNF011.05D alone 3.0 μm/mL", "result": "increased"}, {"measurement": "Treated Skin Collagen (%)", "setting": "collagen in the dermis; four subcutaneous doses 0.30 μg (total 1.20), 4 weeks after dose", "result": "37.60% and 34.94%"}, {"measurement": "Treated Skin Collagen (%)", "setting": "collagen in the dermis; single subcutaneous dose 0.30 μg, 1 week after dose", "result": "41.20% and 57.15%"}, {"measurement": "Treated Skin Collagen (%)", "setting": "collagen in the dermis; single subcutaneous dose 0.30 μg, 2 weeks after dose", "result": "43.78% and 39.20%"}, {"measurement": "Treated Skin Collagen (%)", "setting": "collagen in the dermis; single subcutaneous dose 0.30 μg, 12 weeks after dose", "result": "29.57% and 27.22%"}, {"measurement": "Treated Skin Collagen (%)", "setting": "collagen in the dermis; two subcutaneous doses 0.30 μg one week apart (total 0.60), 2 weeks after dose", "result": "44.19% and 37.91%"}, {"measurement": "Treated Skin Collagen (%)", "setting": "collagen in the dermis; two subcutaneous doses 0.30 μg one week apart (total 0.60), 12 weeks after dose", "result": "39.23% and 47.33%"}, {"measurement": "Day 3 Size of punch wounds", "setting": "punch wounds [4]; 235 nM in saline, single dose, then bandaging, Day 3, 8 rats per timepoint", "result": 0.200, "unit": "cm^2"}, {"measurement": "Day 7 Size of punch wounds", "setting": "punch wounds [4]; 235 nM in saline, single dose, then bandaging, Day 7, 8 rats per timepoint", "result": 0.084, "unit": "cm^2"}, {"measurement": "Day 14 Size of punch wounds", "setting": "punch wounds [4]; 235 nM in saline, single dose, then bandaging, Day 14, 8 rats per timepoint", "result": 0.053, "unit": "cm^2"}, {"measurement": "Day 21 Size of punch wounds", "setting": "punch wounds [4]; 235 nM in saline, single dose, then bandaging, Day 21, 8 rats per timepoint", "result": "Scar **"}, {"measurement": "scar size and color", "setting": "punch wounds [4]; 21 days, in comparison to Standard Care (negative control)", "result": "scars of reduced size and color"}, {"measurement": "cell viability (% viability)", "setting": "[1]", "result": "augment"}, {"measurement": "production of fibronectin by fibroblasts", "setting": "Human fibroblasts [5]", "result": "significant enhancement"}, {"measurement": "Granulation Tissue Filling No (wounds)", "setting": "punch wounds [6]; 1x: 1 ml at 1.57 μg/ml in saline, daily, six wounds, Day 1", "result": 6}, {"measurement": "Granulation Tissue Filling No (wounds)", "setting": "punch wounds [6]; [10]", "result": 3}, {"measurement": "Granulation Tissue Filling Yes (wounds)", "setting": "punch wounds [6]; [10]", "result": 3}, {"measurement": "Granulation Tissue Filling No (wounds)", "setting": "punch wounds [6]; [11]", "result": 2}, {"measurement": "Granulation Tissue Filling Yes (wounds)", "setting": "punch wounds [6]; [11]", "result": 4}, {"measurement": "Granulation Tissue Filling Yes (wounds)", "setting": "punch wounds [6]; 1x: 1 ml at 1.57 μg/ml in saline, daily, six wounds, Day 10", "result": 6}, {"measurement": "Granulation Tissue Filling Yes (wounds)", "setting": "punch wounds [6]; 1x: 1 ml at 1.57 μg/ml in saline, daily, six wounds, Day 14", "result": 6}, {"measurement": "Granulation Tissue Filling No (wounds)", "setting": "punch wounds [6]; 1x: 1 ml ointment at 1.57 μg/ml in Hydroxyethyl cellulose/Glycerin (20%/80%), two wounds, Day 1", "result": 2}, {"measurement": "Granulation Tissue Filling Yes (wounds)", "setting": "punch wounds [6]; 1x: 1 ml ointment at 1.57 μg/ml in Hydroxyethyl cellulose/Glycerin (20%/80%), two wounds, Day 5", "result": 2}, {"measurement": "Granulation Tissue Filling Yes (wounds)", "setting": "punch wounds [6]; 1x: 1 ml ointment at 1.57 μg/ml in Hydroxyethyl cellulose/Glycerin (20%/80%), two wounds, Day 7", "result": 2}, {"measurement": "Granulation Tissue Filling Yes (wounds)", "setting": "punch wounds [6]; 1x: 1 ml ointment at 1.57 μg/ml in Hydroxyethyl cellulose/Glycerin (20%/80%), two wounds, Day 10", "result": 2}, {"measurement": "Granulation Tissue Filling Yes (wounds)", "setting": "punch wounds [6]; 1x: 1 ml ointment at 1.57 μg/ml in Hydroxyethyl cellulose/Glycerin (20%/80%), two wounds, Day 14", "result": 2}, {"measurement": "Granulation Tissue Filling No (wounds)", "setting": "punch wounds [6]; 100x: 1 ml at 157 μg/ml in saline, daily, six wounds, Day 1", "result": 6}, {"measurement": "Granulation Tissue Filling No (wounds)", "setting": "punch wounds [6]; 100x: 1 ml at 157 μg/ml in saline, daily, six wounds, Day 5", "result": 6}, {"measurement": "Granulation Tissue Filling No (wounds)", "setting": "punch wounds [6]; [12]", "result": 5}, {"measurement": "Granulation Tissue Filling Yes (wounds)", "setting": "punch wounds [6]; [12]", "result": 1}, {"measurement": "Granulation Tissue Filling Yes (wounds)", "setting": "punch wounds [6]; 100x: 1 ml at 157 μg/ml in saline, daily, six wounds, Day 10", "result": 6}, {"measurement": "Granulation Tissue Filling Yes (wounds)", "setting": "punch wounds [6]; 100x: 1 ml at 157 μg/ml in saline, daily, six wounds, Day 14", "result": 6}, {"measurement": "Granulation Tissue Filling No (wounds)", "setting": "punch wounds [6]; 100x: 1 ml ointment at 157 μg/ml in Hydroxyethyl cellulose/Glycerin (20%/80%), two wounds, Day 1", "result": 2}, {"measurement": "Granulation Tissue Filling Yes (wounds)", "setting": "punch wounds [6]; 100x: 1 ml ointment at 157 μg/ml in Hydroxyethyl cellulose/Glycerin (20%/80%), two wounds, Day 5", "result": 2}, {"measurement": "Granulation Tissue Filling Yes (wounds)", "setting": "punch wounds [6]; 100x: 1 ml ointment at 157 μg/ml in Hydroxyethyl cellulose/Glycerin (20%/80%), two wounds, Day 7", "result": 2}, {"measurement": "Granulation Tissue Filling Yes (wounds)", "setting": "punch wounds [6]; 100x: 1 ml ointment at 157 μg/ml in Hydroxyethyl cellulose/Glycerin (20%/80%), two wounds, Day 10", "result": 2}, {"measurement": "Granulation Tissue Filling Yes (wounds)", "setting": "punch wounds [6]; 100x: 1 ml ointment at 157 μg/ml in Hydroxyethyl cellulose/Glycerin (20%/80%), two wounds, Day 14", "result": 2}, {"measurement": "tenascin production by fibroblasts", "setting": "Human fibroblasts [7]", "result": "significant difference"}, {"measurement": "increase of viability of neutrophils in presence of L-NAME", "setting": "Neutrophils [8]; [9]", "result": "diminished"}, {"measurement": "viability of neutrophils", "setting": "Neutrophils [8]; CNF011.05D alone 3.0 μm/mL", "result": "increased"}]}
